How the values were obtained:
[1] = Selectivity of guest-induced changes in membrane potential at pH 5.0 for PVC matrix liquid membranes incorporated with 6,7,9,10,17,18,20,21-Octahydro-5,8,11,16,19,22-hexaoxa-dibenzo[a,j]cyclooctadecene; format: ADME
[2] = Selectivity of guest-induced changes in membrane potential at pH 5.0 for PVC matrix liquid membrane without any host; format: ADME
[3] = Partition coefficient (logP); format: physicochemical; conditions: octanol/water
[4] = Selectivity of guest-induced changes in membrane potential at pH 5.0 for PVC matrix liquid membranes incorporated with (2-Butoxy-5-tert-butyl-3-methyl-phenyl)-methanol polymer; format: ADME
[5] = Selectivity of guest-induced changes in membrane potential at pH 5.0 for PVC matrix liquid membranes incorporated with o-Tolyloxy-acetic acid ethyl ester polymer; format: ADME
[6] = Selectivity of guest-induced changes in membrane potential at pH 5.0 for PVC matrix liquid membranes incorporated with o-Tolyloxy-acetic acid decyl ester polymer; format: ADME
[7] = Selectivity of guest-induced changes in membrane potential(Kpot A,B) at pH 5.0 for PVC matrix liquid membranes incorporated with 6,7,9,10,17,18,20,21-Octahydro-5,8,11,16,19,22-hexaoxa-dibenzo[a,j]cyclooctadecene; format: ADME

| Structure (SMILES) | Kpot A,B [1] | Kpot A,B [2] | logP [3] | Kpot A,B [5] | Kpot A,B [6] | Kpot A,B [7] | Kpot A,B [4] |
| --- | --- | --- | --- | --- | --- | --- | --- |
| NC12CC3CC(CC(C3)C1)C2 [AMANTADINE] | 14.8 | 1.2 | 1.77 | < 0.01 | < 0.01 | – | 1.85 |
| NCCc1ccc(O)c(O)c1 [DOPAMINE] | – | 1 | 0.82 | 1 | 1 | – | 1 |
| CNC[C@H](O)c1ccc(O)c(O)c1 [EPINEPHRINE] | – | 0.65 | 0.59 | 0.09 | 0.089 | – | < 0.01 |
| NC[C@H](O)c1ccc(O)c(O)c1 [NOREPINEPHRINE] | – | – | 0.82 | – | – | – | – |
| NCCc1ccccc1 [PHENETHYLAMINE] | 1 | 1 | 1.58 | 1 | 1 | – | 1 |

The next lines start with results.

| Kpot A,B [1] | Kpot A,B [2] | logP [3] | Kpot A,B [5] | Kpot A,B [6] | Kpot A,B [7] | Structure (SMILES) | Kpot A,B [4] |
| --- | --- | --- | --- | --- | --- | --- | --- |
| 19 | 1.68 | 2.93 | 3.52 | 2.58 | – | CCCCCCCCN | 2.01 |
| – | 0.78 | – | 0.15 | 0.15 | 0.9 | NCc1ccccc1 [BENZYLAMINE] | 0.45 |
| 0.4 | 0.56 | 0.72 | < 0.01 | < 0.01 | – | CC(C)(C)N [TERT-BUTYLAMINE] | 0.31 |

Reference: ChEMBL document CHEMBL1132131, “Dopamine-selective response in membrane potential by homooxacalix[3]arene triether host incorporated in PVC liquid membrane” (Bioorg Med Chem Lett, 1999)
